Measurements reported in PubChem BioAssay AID434935 (Broad Institute, 2010).
Records with an inconclusive call do not appear. The source made the active and inactive calls.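 How the source made its calls: active means EC50 no higher than ten times the top concentration tested; inconclusive means flat fit with growth inhibition between 30% and 70%, or poor fit; inactive means EC50 above ten times the top concentration tested.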

Test system: C. albicans CaCi-8 + fluconazole, Alamar Blue growth, 48 h
Test: resistant C. albicans growth reduction under fluconazole – CaCi-8 strain, Alamar Blue fluorescence, SAR follow-up (AID 434935)

Structure (SMILES) | EC50
Nc1nccnc1C(=O)Nc1nnc(SCc2ccc(Cl)cc2)s1 | 1430 nM
CCCC(=O)NC(c1ccc(Cl)cc1)c1ccc2cccnc2c1O (centres undefined) | 607 nM
Clc1ccc2c(c1)C(c1cccs1)=NNC(c1cccnc1)=N2 | < 100 nM
Cc1oc2c(F)c(F)c(F)c(F)c2c1S(=O)(=O)Nc1cccc(C(F)(F)F)c1 | 9310 nM
Cc1ccc(Nc2nc(N)c([N+](=O)[O-])c(N3CCC(C)CC3)n2)cc1C | 6150 nM
O=C(NNC1=C(C(=O)C(F)(F)F)CCC1)c1ccc(Cl)cc1 | 6840 nM
O=C(Nc1nnc(SCc2ccc(Cl)cc2)s1)c1ccc2ccccc2n1 | 771 nM
COc1cc2c(cc1NC(=O)c1ccco1)CCCC2 | < 100 nM
CC(C)N1CCc2c(sc(NC(=O)c3nc4ccccc4s3)c2C(N)=O)C1 | 600 nM
O=C(Nc1nnc(CCc2ccccc2)s1)c1ccco1 | 3110 nM
CCOC(=O)N1C(=O)C2(CCCCC2)N(c2ccc(C)cc2)C1=S | 1360 nM
Cc1nc2ccccc2cc1OCc1ccc(F)cc1 | 7270 nM
O=C(Nc1nc(-c2ccccn2)cs1)c1ccc(Br)s1 | 2360 nM
COc1ccc(-n2nc(C(=O)NCC(=O)N3CCN(c4ccccc4)CC3)c3ccccc3c2=O)c(OC)c1 | 1160 nM
O=C(Nc1sc2c(c1C(=O)c1ccc(Cl)cc1)CCCC2)c1cccnc1 | 938 nM
O=C(Oc1c(Cl)cc(Cl)c2cccnc12)c1cccs1 | 192 nM
Cc1ccc(/C=C/C(=O)c2ccccc(=O)c2O)cc1C | > 26000 nM (inactive)
CCCC(=O)NC(c1ccccc1)c1ccc2cccnc2c1O (centres undefined) | 1110 nM
Cc1ccc(C(=O)Nc2cccc(-c3cn4ccccc4n3)c2)cc1 | 2780 nM
COc1ccc(-c2nnc(NC(=O)c3ccc(F)cc3)o2)cc1 | 146 nM
Cc1ccc(C(=O)c2coc3c2C(=O)C(=O)c2ccccc2-3)cc1 | 226 nM
CC(C)COCc1ccc(O)c2ncccc12 | 7460 nM
O=C(Nc1nnc(-c2ccc3c(c2)CCCC3)o1)c1ccc(Cl)cc1Cl | 152 nM
O=c1c2cc(Br)ccc2nc(-c2cccc(C(F)(F)F)c2)n1O | 3100 nM
